Experimental data: patent publication US12168012B2, “NLRP3 inflammasome inhibitors” (Novartis AG, priority 2018, dated 2024)

Tested on: NLRP3 inflammasome
Test: IL-1β secretion assay
Format: cell-based
Conditions: Homo sapiens, THP-1, 3 h, PMA-differentiated THP-1 cells, 15 μM nigericin, HTRF
Protocol: 10 μL supernatant was removed, and IL-1p levels were monitored using an HTRF assay (CisBio, #62IL1PEC) according to manufacturers' instructions. Viability and pyroptosis was monitored with the addition of PrestoBlue cell viability reagent (Life Technologies, #A13261) directly to the cell culture plate.
IC50 values were calculated from the plot of percentage of inhibition versus the inhibitor concentration by a logistics fit according to: y=A2+(A1−A2)/(1+(x/IC50)^p) where y is the %-inhibition at the inhibitor concentration, x. A1 is the lowest inhibition value, i.e. 0%, and A2 the maximum inhibition value, i.e. 100%. The exponent, p, is the Hill coefficient. The curve fitting was conducted with an internally developed software suite.
NLRP3-dependent IL-1β secretion was stimulated in PMA-differentiated THP-1 cells by the addition of nigericin, and cytokines were measured in the […] after 3 hours. As discussed above, activation of the NLRP3 inflammasome requires both an NF-kB-dependent priming step and the addition of a NLRP3 activator.

Structure (SMILES) | IC50
CCN1CCC[C@@H](NC(=O)Cn2nc(C(C)(C)O)n3c(cc4sc(Cl)cc43)c2=O)C1 [Ex 132, (R)-2-(2-Chloro-5-(2-hydroxypropan-2-yl)-8-oxothieno[2′,3′:4,5]pyrrolo[1,2-d][1,2,4]triazin-7(8H)-yl)-N-(1-ethylpiperidin-3-yl)acetamide] | 0.8 nM
CC(C)c1nn(CC(=O)N[C@H]2C[C@H](O)C2)c(=O)c2cc3sc(Cl)cc3n12 [Ex 108, 2-(2-Chloro-5-isopropyl-8-oxothieno[2′,3′:4,5]pyrrolo[1,2-d][1,2,4]triazin-7(8H)-yl)-N-((1r,3r)-3-hydroxycyclobutyl)acetamide] | 101 nM
CC(C)c1nn(CC(=O)Nc2ncncc2Cl)c(=O)c2cc3sc(Cl)cc3n12 [Ex 16, 2-(2-Chloro-5-isopropyl-8-oxothieno[2′,3′:4,5]pyrrolo[1,2-d][1,2,4]triazin-7(8H)-yl)-N-(5-chloropyrimidin-4-yl)acetamide] | 57.3 nM
CC(C)c1nn(CC(=O)N[C@H]2CCN(C)C2)c(=O)c2cc3sc(Cl)cc3n12 [Ex 105, (S)-2-(2-Chloro-5-isopropyl-8-oxothieno[2′,3′:4,5]pyrrolo[1,2-d][1,2,4]triazin-7(8H)-yl)-N-(1-methylpyrrolidin-3-yl)acetamide] | 838 nM
CC(C)c1nn(CC(=O)NC2CCCC2)c(=O)c2cc3sc(Cl)cc3n12 [Ex 101, 2-(2-chloro-5-Isopropyl-8-oxothieno[2′,3′:4,5]pyrrolo[1,2-d][1,2,4]triazin-7(8H)-yl)-N-cyclopentylacetamide] | 381 nM
CC(C)c1nn(CC(=O)N[C@H]2C[C@@H](O)C2)c(=O)c2cc3sc(Cl)cc3n12 [Ex 109, 2-(2-Chloro-5-isopropyl-8-oxothieno[2′,3′:4,5]pyrrolo[1,2-d][1,2,4]triazin-7(8H)-yl)-N-((1s,3s)-3-hydroxycyclobutyl)acetamide] | 221 nM
CC(C)c1nn(CC(=O)N[C@@H]2CCC(=O)N(C)C2)c(=O)c2cc3scnc3n12 [Ex 97, (R)-2-(5-Isopropyl-8-oxothiazolo[5′,4′:4,5]pyrrolo[1,2-d][1,2,4]triazin-7(8H)-yl)-N-(1-methyl-6-oxopiperidin-3-yl)acetamide] | 18.3 nM
CC(C)(O)c1nn(CC(=O)Nc2ccc3cc[nH]c3c2)c(=O)c2cc3sc(Cl)cc3n12 [Ex 67, 2-(2-Chloro-5-(2-hydroxypropan-2-yl)-8-oxothieno[2′,3′:4,5]pyrrolo[1,2-d][1,2,4]triazin-7(8H)-yl)-N-(1H-indol-6-yl)acetamide] | 212 nM
CC(C)c1nn(CC(=O)N[C@H]2C[C@@](C)(O)C2)c(=O)c2cc3scnc3n12 [Ex 93, N-((1s,3s)-3-Hydroxy-3-methylcyclobutyl)-2-(5-isopropyl-8-oxothiazolo[5′,4′:4,5]pyrrolo[1,2-d][1,2,4]triazin-7(8H)-yl)acetamide] | 0.8 nM
CC(C)c1nn(CC(=O)N[C@H]2C[C@](C)(O)C2)c(=O)c2cc3sc(Cl)cc3n12 [Ex 71, 2-(2-Chloro-5-isopropyl-8-oxothieno[2′,3′:4,5]pyrrolo[1,2-d][1,2,4]triazin-7(8H)-yl)-N-((1r,3r)-3-hydroxy-3-methylcyclobutyl)acetamide] | 15.9 nM
CC(C)(O)c1nn(CC(=O)N[C@@H]2CCCN(C3CC3)C2)c(=O)c2cc3sc(Cl)cc3n12 [Ex 126, (R)-2-(2-Chloro-5-(2-hydroxypropan-2-yl)-8-oxothieno[2′,3′:4,5]pyrrolo[1,2-d][1,2,4]triazin-7(8H)-yl)-N-(1-cyclopropylpiperidin-3-yl)acetamide] | 0.6 nM
CC(C)c1nn(CC(=O)N[C@@H]2CC[C@@H](N)C2)c(=O)c2cc3sc(Cl)cc3n12 [Ex 22, N-((1R,3R)-3-Aminocyclopentyl)-2-(2-chloro-5-isopropyl-8-oxothieno[2′,3′:4,5]pyrrolo[1,2-d][1,2,4]triazin-7(8H)-yl)acetamide] | 408 nM
O=C(Cn1nc(C2CC2)n2c(cc3sc(Cl)cc32)c1=O)N[C@H]1CC[C@H](C(=O)O)CC1 [Ex 121, (1r,4r)-4-(2-(2-Chloro-5-cyclopropyl-8-oxothieno[2′,3′:4,5]pyrrolo[1,2-d][1,2,4]triazin-7(8H)-yl)acetamido)cyclohexane-1-carboxylic acid] | 44.1 nM
CC(C)c1nn(CC(=O)N[C@H]2CC[C@H](C(=O)O)CC2)c(=O)c2cc3sc(F)cc3n12 [Ex 120, (1r,4r)-4-(2-(2-Fluoro-5-isopropyl-8-oxothieno[2′,3′:4,5]pyrrolo[1,2-d][1,2,4]triazin-7(8H)-yl)acetamido)cyclohexane-1-carboxylic acid] | 17.2 nM
CC(C)c1nn(CC(=O)Nc2cncs2)c(=O)c2cc3sc(Cl)cc3n12 [Ex 12, 2-(2-Chloro-5-isopropyl-8-oxothieno[2′,3′:4,5]pyrrolo[1,2-d][1,2,4]triazin-7(8H)-yl)-N-(thiazol-5-yl)acetamide] | 23.7 nM
CC(C)c1nn(CC(=O)N[C@H]2C[C@](O)(C(F)(F)F)C2)c(=O)c2cc3sc(Cl)cc3n12 [Ex 74, 2-(2-Chloro-5-isopropyl-8-oxothieno[2′,3′:4,5]pyrrolo[1,2-d][1,2,4]triazin-7(8H)-yl)-N-((1s,3s)-3-hydroxy-3-(trifluoromethyl)cyclobutyl)acetamide] | 4.4 nM
CC(C)c1nn(CC(=O)Nc2cccnc2Cl)c(=O)c2cc3sc(Cl)cc3n12 [Ex 13, 2-(2-Chloro-5-isopropyl-8-oxothieno[2′,3′:4,5]pyrrolo[1,2-d][1,2,4]triazin-7(8H)-yl)-N-(2-chloropyridin-3-yl)acetamide] | 94 nM
CC(C)c1nn(CC(=O)Nc2ccc(F)nc2)c(=O)c2cc3sc(Cl)cc3n12 [Ex 14, 2-(2-Chloro-5-isopropyl-8-oxothieno[2′,3′:4,5]pyrrolo[1,2-d][1,2,4]triazin-7(8H)-yl)-N-(6-fluoropyridin-3-yl)acetamide] | 90.6 nM
Cc1nc2c(cc3c(=O)n(CC(=O)N[C@@H]4CCCN(C)C4)nc(C(C)C)n32)s1 [Ex 92, (R)-2-(5-Isopropyl-2-methyl-8-oxothiazolo[5′,4′:4,5]pyrrolo[1,2-d][1,2,4]triazin-7(8H)-yl)-N-(1-methylpiperidin-3-yl)acetamide] | 65.2 nM
Cc1nc2c(cc3c(=O)n(CC(=O)N[C@H]4CC[C@H](C(=O)O)CC4)nc(C(C)C)n32)s1 [Ex 118, (1r,4r)-4-(2-(5-Isopropyl-2-methyl-8-oxothiazolo[5′,4′:4,5]pyrrolo[1,2-d][1,2,4]triazin-7(8H)-yl)acetamido)cyclohexane-1-carboxylic acid] | 78.8 nM
CC(C)c1nn(CC(=O)NC[C@@H](C)O)c(=O)c2cc3sc(F)cc3n12 [Ex 85, (R)-2-(2-Fluoro-5-isopropyl-8-oxothieno[2′,3′:4,5]pyrrolo[1,2-d][1,2,4]triazin-7(8H)-yl)-N-(2-hydroxypropyl)acetamide] | 130 nM
CC(C)c1nn(CC(=O)Nc2nccs2)c(=O)c2cc3sc(Cl)cc3n12 [Ex 11, 2-(2-Chloro-5-isopropyl-8-oxothieno[2′,3′:4,5]pyrrolo[1,2-d][1,2,4]triazin-7(8H)-yl)-N-(thiazol-2-yl)acetamide] | 62.5 nM
Cc1n[nH]c2cc(NC(=O)Cn3nc(C(C)(C)O)n4c(cc5sc(Cl)cc54)c3=O)ccc12 [Ex 66, 2-(2-Chloro-5-(2-hydroxypropan-2-yl)-8-oxothieno[2′,3′:4,5]pyrrolo[1,2-d][1,2,4]triazin-7(8H)-yl)-N-(3-methyl-1H-indazol-6-yl)acetamide] | 7.8 nM
CC(C)c1nn(CC(=O)N[C@H]2C[C@@](C)(O)C2)c(=O)c2cc3sc(F)cc3n12 [Ex 87, 2-(2-Fluoro-5-isopropyl-8-oxothieno[2′,3′:4,5]pyrrolo[1,2-d][1,2,4]triazin-7(8H)-yl)-N-((1s,3s)-3-hydroxy-3-methylcyclobutyl)acetamide] | 1 nM
CC(C)c1nn(CC(=O)N[C@@H]2CCCN(CCOC(F)(F)F)C2)c(=O)c2cc3sc(Cl)cc3n12 [Ex 78, (R)-2-(2-Chloro-5-isopropyl-8-oxothieno[2′,3′:4,5]pyrrolo[1,2-d][1,2,4]triazin-7(8H)-yl)-N-(1-(2-(trifluoromethoxy)ethyl)piperidin-3-yl)acetamide] | 71.4 nM
CC(C)c1nn(CC(=O)NCCC2(O)CC2)c(=O)c2cc3sc(Cl)cc3n12 [Ex 110, 2-(2-Chloro-5-isopropyl-8-oxothieno[2′,3′:4,5]pyrrolo[1,2-d][1,2,4]triazin-7(8H)-yl)-N-(2-(1-hydroxycyclopropyl)ethyl)acetamide] | 115 nM
CC(C)c1nn(CC(=O)NCCC(C)(C)O)c(=O)c2cc3sc(F)cc3n12 [Ex 84, 2-(2-Fluoro-5-isopropyl-8-oxothieno[2′,3′:4,5]pyrrolo[1,2-d][1,2,4]triazin-7(8H)-yl)-N-(3-hydroxy-3-methylbutyl)acetamide] | 12.9 nM
CC(C)c1nn(CC(=O)N[C@H]2CCNC2)c(=O)c2cc3sc(Cl)cc3n12 [Ex 102, (S)-2-(2-Chloro-5-isopropyl-8-oxothieno[2′,3′:4,5]pyrrolo[1,2-d][1,2,4]triazin-7(8H)-yl)-N-(pyrrolidin-3-yl)acetamide] | 886 nM
CC(C)c1nn(CC(=O)Nc2ccnn2C)c(=O)c2cc3sc(Cl)cc3n12 [Ex 57, 2-(2-Chloro-5-isopropyl-8-oxothieno[2′,3′:4,5]pyrrolo[1,2-d][1,2,4]triazin-7(8H)-yl)-N-(1-methyl-1H-pyrazol-5-yl)acetamide] | 61.5 nM
CC(C)c1nn(CC(=O)NC[C@@H](C)O)c(=O)c2cc3scnc3n12 [Ex 95, (R)-N-(2-Hydroxypropyl)-2-(5-isopropyl-8-oxothiazolo[5′,4′:4,5]pyrrolo[1,2-d][1,2,4]triazin-7(8H)-yl)acetamide] | 246 nM
